From patent publication USRE38425E1, “Semicarbazones having CNS activity and pharmaceutical preparations containing same” (University of Saskatchewan Technologies, Inc., priority 1995, dated 2004)

Columns and labels:
[1] = tested on: rats; assay: MES screen after oral administration to rats; conditions: oral administration to rats; for MES screen ED50: time t (h) per compound as in the table
[2] = tested on: rats; assay: scPTZ screen after oral administration to rats
Method: Initially doses of 50 mg/kg of the semicarbazones were administered.

[3] = tested on: mice; assay: MES screen after intraperitoneal injection in mice; assay type: in vivo; conditions: intraperitoneal injection in mice; time t (h) per compound as in the table
[4] = tested on: mice; conditions: for acPTZ screen ED50: intraperitoneal injection in mice, time t (h) per compound as in the table
[5] = tested on: mice; conditions: for neurotoxicity screen TD50: intraperitoneal injection in mice, time t (h) per compound as in the table
[6] = tested on: rats; assay: neurotoxicity screen after oral administration to rats; conditions: oral administration to rats; time t (h) per compound as in the table
[7] = doses indicated in Table 1, after 0.5 h
[8] = doses indicated in Table 1, after 1 h
[9] = doses indicated in Table 1, after 4 h
[10] = doses indicated in Table 1, after 2 h

NC(=O)NN=Cc1ccc(Oc2ccc(I)cc2)cc1 [Compound 4e]
MES screen 0.25 h: number of rats out of 4 which were protected ([1]; dose 50 mg/kg, 0.25 h): 3 | MES screen 0.5 h: number of rats out of 4 which were protected ([1]; dose 50 mg/kg, 0.5 h): 4 | MES screen 1 h: number of rats out of 4 which were protected ([1]; dose 50 mg/kg, 1 h): 4 | MES screen 2 h: number of rats out of 4 which were protected ([1]; dose 50 mg/kg, 2 h): 4 | MES screen 4 h: number of rats out of 4 which were protected ([1]; dose 50 mg/kg, 4 h): 4 | number of rats protected in the scPTZ screen [2, 7]: 1/4 | number of rats protected in the scPTZ screen [2, 8]: 1/4 | number of rats protected in the scPTZ screen [2, 9]: 1/4

Cc1ccc(Oc2ccc(C=NNC(N)=O)cc2)cc1 [Compound 4f]
MES screen ED50 [3]: 14.65 mg/kg | acPTZ screen ED50 [4]: 88.55 mg/kg | neurotoxicity screen TD50 [5]: 203.73 mg/kg | MES screen 0.25 h: number of rats out of 4 which were protected ([1]; dose 50 mg/kg, 0.25 h): 3 | MES screen 0.5 h: number of rats out of 4 which were protected ([1]; dose 50 mg/kg, 0.5 h): 4 | MES screen 1 h: number of rats out of 4 which were protected ([1]; dose 50 mg/kg, 1 h): 4 | MES screen 2 h: number of rats out of 4 which were protected ([1]; dose 50 mg/kg, 2 h): 4 | MES screen 4 h: number of rats out of 4 which were protected ([1]; dose 50 mg/kg, 4 h): 4 | MES screen ED50 [1]: 3.43 mg/kg | neurotoxicity screen TD50 [6]: >500 mg/kg

Cc1ccccc1Oc1ccc(C=NNC(N)=O)cc1 [Compound 5n]
MES screen 0.5 h: number of rats out of 4 which were protected ([1]; dose 12.5 mg/kg, 0.5 h): 4 | MES screen 1 h: number of rats out of 4 which were protected ([1]; dose 12.5 mg/kg, 1 h): 3 | MES screen 2 h: number of rats out of 4 which were protected ([1]; dose 12.5 mg/kg, 2 h): 4 | MES screen 4 h: number of rats out of 4 which were protected ([1]; dose 12.5 mg/kg, 4 h): 4 | MES screen ED50 [1]: 5.65 mg/kg | number of rats protected in the scPTZ screen [2, 7]: 1/4 | number of rats protected in the scPTZ screen [2, 8]: 1/4 | number of rats protected in the scPTZ screen [2, 10]: 1/4 | neurotoxicity screen TD50 [6]: >500 mg/kg

Cc1cccc(Oc2ccc(C=NNC(N)=O)cc2)c1 [Compound 5o]
side effect in the scPTZ screen at the end of the 4 hours ([4]; intraperitoneal injection into mice, 300 mg/kg): continuous seizure activity followed by death | MES screen 0.5 h: number of rats out of 4 which were protected ([1]; dose 12.5 mg/kg, 0.5 h): 4 | MES screen 1 h: number of rats out of 4 which were protected ([1]; dose 12.5 mg/kg, 1 h): 4 | MES screen 2 h: number of rats out of 4 which were protected ([1]; dose 12.5 mg/kg, 2 h): 3 | MES screen 4 h: number of rats out of 4 which were protected ([1]; dose 12.5 mg/kg, 4 h): 2 | MES screen ED50 [1]: 3.07 mg/kg | neurotoxicity screen TD50 [6]: >500 mg/kg

CCCc1ccc(Oc2ccc(C=NNC(N)=O)cc2)cc1 [Compound 5q]
MES screen 0.5 h: number of rats out of 4 which were protected ([1]; dose 12.5 mg/kg, 0.5 h): 1 | MES screen 1 h: number of rats out of 4 which were protected ([1]; dose 12.5 mg/kg, 1 h): 2 | MES screen 2 h: number of rats out of 4 which were protected ([1]; dose 12.5 mg/kg, 2 h): 4 | MES screen 4 h: number of rats out of 4 which were protected ([1]; dose 12.5 mg/kg, 4 h): 2 | MES screen ED50 [1]: 2.63 mg/kg | neurotoxicity screen TD50 [6]: >500 mg/kg

CCCCc1ccc(Oc2ccc(C=NNC(N)=O)cc2)cc1 [Compound 5r]
MES screen ED50 [3]: 13.36 mg/kg | acPTZ screen ED50 [4]: 86.93 mg/kg | neurotoxicity screen TD50 [5]: 131.27 mg/kg | MES screen 0.5 h: number of rats out of 4 which were protected ([1]; dose 12.5 mg/kg, 0.5 h): 2 | MES screen 1 h: number of rats out of 4 which were protected ([1]; dose 12.5 mg/kg, 1 h): 2 | MES screen 2 h: number of rats out of 4 which were protected ([1]; dose 12.5 mg/kg, 2 h): 3 | MES screen 4 h: number of rats out of 4 which were protected ([1]; dose 12.5 mg/kg, 4 h): 4 | MES screen ED50 [1]: 3.21 mg/kg | number of rats protected in the scPTZ screen [2, 8]: 1/4 | number of rats protected in the scPTZ screen [2, 10]: 2/4 | number of rats protected in the scPTZ screen [2, 9]: 1/4 | neurotoxicity screen TD50 [6]: >3.22 mg/kg

CC(C)(C)c1ccc(Oc2ccc(C=NNC(N)=O)cc2)cc1 [Compound 5s]
MES screen ED50 [3]: 8.87 mg/kg | acPTZ screen ED50 [4]: >150.00 mg/kg | neurotoxicity screen TD50 [5]: 105.92 mg/kg | MES screen 1 h: number of rats out of 4 which were protected ([1]; dose 12.5 mg/kg, 1 h): 4 | MES screen 2 h: number of rats out of 4 which were protected ([1]; dose 12.5 mg/kg, 2 h): 4 | MES screen 4 h: number of rats out of 4 which were protected ([1]; dose 12.5 mg/kg, 4 h): 4 | MES screen ED50 [1]: 1.68 mg/kg | neurotoxicity screen TD50 [6]: >500 mg/kg

CC(C)(C)CC(C)(C)c1ccc(Oc2ccc(C=NNC(N)=O)cc2)cc1 [Compound 5t]
MES screen ED50 [3]: 11.27 mg/kg | acPTZ screen ED50 [4]: >200 mg/kg | neurotoxicity screen TD50 [5]: 124.53 mg/kg

CCCCCCCOc1ccc(Oc2ccc(C=NNC(N)=O)cc2)cc1 [Compound 5v]
toxicity screen 4 h: minimum dose whereby bioactivity was demonstrated in half or more of the mice ([5]; mouse, in vivo): −

CC(=NNC(N)=O)c1ccc(Oc2ccccc2)cc1 [Compound 13a]
MES screen ED50 [3]: 9.08 mg/kg | acPTZ screen ED50 [4]: 43.31 mg/kg | neurotoxicity screen TD50 [5]: 73.48 mg/kg | MES screen: number of rats out of 4 which were protected ([1]; dose 30 mg/kg, 0.25 h): 4 | MES screen: number of rats out of 4 which were protected ([1]; dose 30 mg/kg, 0.5 h): 4 | MES screen: number of rats out of 4 which were protected ([1]; dose 30 mg/kg, 1 h): 4 | MES screen: number of rats out of 4 which were protected ([1]; dose 30 mg/kg, 2 h): 4 | MES screen: number of rats out of 4 which were protected ([1]; dose 30 mg/kg, 4 h): 4 | MES screen ED50 [1]: 9.73 mg/kg

CC(=NNC(N)=O)c1ccc(Oc2ccc(F)cc2)cc1 [Compound 13b]
MES screen ED50 [3]: 11.63 mg/kg | acPTZ screen ED50 [4]: >80 mg/kg | neurotoxicity screen TD50 [5]: 60.74 mg/kg | MES screen: number of rats out of 4 which were protected ([1]; dose 12.5 mg/kg, 0.5 h): 4 | MES screen: number of rats out of 4 which were protected ([1]; dose 12.5 mg/kg, 1 h): 4 | MES screen: number of rats out of 4 which were protected ([1]; dose 12.5 mg/kg, 2 h): 4 | MES screen: number of rats out of 4 which were protected ([1]; dose 12.5 mg/kg, 4 h): 4 | MES screen ED50 [1]: 3.37 mg/kg | neurotoxicity screen TD50 [6]: 108.77 mg/kg

CC(=NNC(N)=O)c1ccc(Oc2ccc(Cl)cc2)cc1 [Compound 13c]
MES screen: number of rats out of 4 which were protected ([1]; dose 30 mg/kg, 0.25 h): 3 | MES screen: number of rats out of 4 which were protected ([1]; dose 30 mg/kg, 0.5 h): 4 | MES screen: number of rats out of 4 which were protected ([1]; dose 30 mg/kg, 1 h): 4 | MES screen: number of rats out of 4 which were protected ([1]; dose 30 mg/kg, 2 h): 4 | MES screen: number of rats out of 4 which were protected ([1]; dose 30 mg/kg, 4 h): 4 | MES screen ED50 [1]: 2.92 mg/kg | neurotoxicity screen TD50 [6]: <500 mg/kg

CC(=NNC(N)=O)c1ccc(Oc2ccc(Br)cc2)cc1 [Compound 13d]
MES screen: number of rats out of 4 which were protected ([1]; dose 12.5 mg/kg, 0.25 h): 1 | MES screen: number of rats out of 4 which were protected ([1]; dose 12.5 mg/kg, 0.5 h): 3 | MES screen: number of rats out of 4 which were protected ([1]; dose 12.5 mg/kg, 1 h): 4 | MES screen: number of rats out of 4 which were protected ([1]; dose 12.5 mg/kg, 2 h): 4 | MES screen: number of rats out of 4 which were protected ([1]; dose 12.5 mg/kg, 4 h): 4 | MES screen ED50 [1]: 1.52 mg/kg | neurotoxicity screen TD50 [6]: >500 mg/kg

CCC(=NNC(N)=O)c1ccc(Oc2ccc(F)cc2)cc1 [Compound 13f]
MES screen ED50 [3]: 5.46 mg/kg | acPTZ screen ED50 [4]: 12.84 mg/kg | neurotoxicity screen TD50 [5]: 35.26 mg/kg | MES screen: number of rats out of 4 which were protected ([1]; dose 12.5 mg/kg, 0.5 h): 2 | MES screen: number of rats out of 4 which were protected ([1]; dose 12.5 mg/kg, 1 h): 4 | MES screen: number of rats out of 4 which were protected ([1]; dose 12.5 mg/kg, 2 h): 4 | MES screen: number of rats out of 4 which were protected ([1]; dose 12.5 mg/kg, 4 h): 4 | MES screen ED50 [1]: 4.25 mg/kg

CCC(=NNC(N)=O)c1ccc(Oc2ccc(Cl)cc2)cc1 [Compound 13g]
MES screen ED50 [3]: 11.09 mg/kg | neurotoxicity screen TD50 [5]: <100 mg/kg | MES screen: number of rats out of 4 which were protected ([1]; dose 30 mg/kg, 0.5 h): 1 | MES screen: number of rats out of 4 which were protected ([1]; dose 30 mg/kg, 1 h): 4 | MES screen: number of rats out of 4 which were protected ([1]; dose 30 mg/kg, 2 h): 4 | MES screen: number of rats out of 4 which were protected ([1]; dose 30 mg/kg, 4 h): 4 | MES screen ED50 [1]: 2.89 mg/kg | neurotoxicity screen TD50 [6]: >500 mg/kg

CCC(=NNC(N)=O)c1ccc(Oc2ccc(Br)cc2)cc1 [Compound 13h]
MES screen: number of rats out of 4 which were protected ([1]; dose 12.5 mg/kg, 0.5 h): 2 | MES screen: number of rats out of 4 which were protected ([1]; dose 12.5 mg/kg, 1 h): 4 | MES screen: number of rats out of 4 which were protected ([1]; dose 12.5 mg/kg, 2 h): 4 | MES screen: number of rats out of 4 which were protected ([1]; dose 12.5 mg/kg, 4 h): 4 | MES screen ED50 [1]: 4.39 mg/kg

CC(=NNC(N)=O)c1ccccc1Oc1ccc(F)cc1 [Compound 14b]
MES screen: number of rats out of 4 which were protected ([1]; dose 30 mg/kg, 0.25 h): 1 | MES screen: number of rats out of 4 which were protected ([1]; dose 30 mg/kg, 0.5 h): 1 | MES screen: number of rats out of 4 which were protected ([1]; dose 30 mg/kg, 1 h): 3 | MES screen: number of rats out of 4 which were protected ([1]; dose 30 mg/kg, 2 h): 3 | MES screen: number of rats out of 4 which were protected ([1]; dose 30 mg/kg, 4 h): 2 | MES screen ED50 [1]: 43.37 mg/kg

NC(=O)NN=Cc1ccc(OS(=O)(=O)c2ccccc2)cc1 [Compound 15f]
MES screen ED50 [3]: 25.27 mg/kg | acPTZ screen ED50 [4]: >100 mg/kg | neurotoxicity screen TD50 [5]: 113.00 mg/kg | MES screen: number of rats out of 4 which were protected ([1]; dose 12.5 mg/kg, 0.25 h): 1 | MES screen: number of rats out of 4 which were protected ([1]; dose 12.5 mg/kg, 0.5 h): 2 | MES screen: number of rats out of 4 which were protected ([1]; dose 12.5 mg/kg, 1 h): 2 | MES screen: number of rats out of 4 which were protected ([1]; dose 12.5 mg/kg, 2 h): 4 | MES screen: number of rats out of 4 which were protected ([1]; dose 12.5 mg/kg, 4 h): 3
